pEC50: −log10 of the molar value.
How the values were obtained:
[1] = tested on: L. donovani intracellular amastigotes infecting THP-1 macrophages; assay: GSK intramacrophage L. donovani assay (LD AMMAC, inMac; Assay Conditions C); type: cell-based; conditions: Leishmania donovani; THP-1 cells; values marked c; read-out: L. donovani amastigotes EC50 (THP-1 cells)
Summary of the method: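 L. donovani amastigotes within THP-1 macrophages; EC50 based on average intracellular amastigotes per infected cell (AMMAC). Infected-cell percentage (INFCELL) and host-cell number (MAC) also read, the latter as toxicity output.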

[2] = GSK inMac assay, host cell toxicity readout (LD MAC); type: cell-based, human; conditions: human; footnote c; read-out: THP-1 Host Cell CC50
Summary of the method: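 Intramacrophage L. donovani assay in THP-1 macrophages; host toxicity taken from host cell number per well, giving MAC EC50. Run alongside amastigote-per-cell and infected-cell readouts in the same wells.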

CC(C)Cc1n[nH]c2c1C(c1ccc(F)cc1)N(c1ccc(F)cc1F)C2=O (stereo not shown) [CMLD011097]
pEC50 [1]: 4.90 | CC50 [2]: 39.8 µM

CC(C)Cc1n[nH]c2c1C(c1ccc(F)cc1)N(c1cccnc1)C2=O (stereo not shown) [CMLD011098]
pEC50 [1]: 4.60 | CC50 [2]: > 50 µM

COc1ccc(N2C(=O)c3[nH]nc(CC(C)C)c3C2c2cccc(Cl)c2)cc1 (stereo not shown) [CMLD011099]
pEC50 [1]: 5.10 | CC50 [2]: 39.8 µM

COc1ccc(N2C(=O)c3[nH]nc(CC(C)C)c3C2c2ccccc2F)cc1 (stereo not shown) [CMLD011102]
pEC50 [1]: 5.49 | CC50 [2]: 31.6 µM

COc1ccc(N2C(=O)c3[nH]nc(CC(C)C)c3C2c2ccccc2Cl)c(OC)c1 (stereo not shown) [CMLD011103]
pEC50 [1]: 5.00 | CC50 [2]: 20 µM

COc1ccc(N2C(=O)c3[nH]nc(CC(C)C)c3C2c2ccsc2)cc1 (stereo not shown) [CMLD011104]
pEC50 [1]: 5.20 | CC50 [2]: > 50 µM

CC(C)Cc1n[nH]c2c1C(c1ccc(F)cc1)N(c1ccc3c(c1)OC(F)(F)O3)C2=O (stereo not shown) [CMLD011105]
pEC50 [1]: 5.60 | CC50 [2]: 12.6 µM

COc1ccc(N2C(=O)c3[nH]nc(CC(C)C)c3C2c2cccc(C(F)(F)F)c2)cc1F (stereo not shown) [CMLD011106]
pEC50 [1]: 5.20 | CC50 [2]: 25.1 µM

COc1ccc(N2C(=O)c3[nH]nc(CC(C)C)c3C2c2ccccc2Br)c(OC)c1 (stereo not shown) [CMLD011109]
pEC50 [1]: 5.20 | CC50 [2]: 15.8 µM

COc1ccc(N2C(=O)c3[nH]nc(CC(C)C)c3C2c2cccs2)cc1 (stereo not shown) [CMLD011110]
pEC50 [1]: 5.10 | CC50 [2]: > 50 µM

CC(C)Cc1n[nH]c2c1C(c1ccccc1Br)N(c1ccc(F)cc1)C2=O (stereo not shown) [CMLD011111]
pEC50 [1]: 5.40 | CC50 [2]: 15.8 µM

COc1ccccc1N1C(=O)c2[nH]nc(CC(C)C)c2C1c1ccccc1Br (stereo not shown) [CMLD011112]
pEC50 [1]: 4.90 | CC50 [2]: 25.1 µM

CC(C)Cc1n[nH]c2c1C(c1ccc(F)cc1)N(c1ccc(F)cc1)C2=O (stereo not shown) [CMLD011113]
pEC50 [1]: 5.20 | CC50 [2]: 25.1 µM

COc1ccc(N2C(=O)c3[nH]nc(CC(C)C)c3C2c2cccc(C(F)(F)F)c2)c(OC)c1 (stereo not shown) [CMLD011115]
pEC50 [1]: 4.90 | CC50 [2]: 20 µM

COc1cc(N2C(=O)c3[nH]nc(CC(C)C)c3C2c2ccccc2Cl)cc(OC)c1OC (stereo not shown) [CMLD011116]
pEC50 [1]: 5.30 | CC50 [2]: 6.3 µM

COCCN1C(=O)c2[nH]nc(CC(C)C)c2C1c1ccc(F)cc1 (stereo not shown) [CMLD011117]
pEC50 [1]: < 4.30 | CC50 [2]: > 50 µM

CC(C)Cc1n[nH]c2c1C(c1cccc(C(F)(F)F)c1)N(c1ccc(F)cc1)C2=O (stereo not shown) [CMLD011119]
pEC50 [1]: 5.60 | CC50 [2]: 25.1 µM

COc1ccc(N2C(=O)c3[nH]nc(CC(C)C)c3C2c2ccc(F)c(C)n2)cc1 (stereo not shown) [CMLD011120]
pEC50 [1]: 4.90 | CC50 [2]: > 50 µM

COc1ccc(N2C(=O)c3[nH]nc(CC(C)C)c3C2c2ccc(C(F)(F)F)cc2)cc1 (stereo not shown) [CMLD011121]
pEC50 [1]: 5.10 | CC50 [2]: 15.9 µM

CC(C)Cc1n[nH]c2c1C(c1cccc(C(F)(F)F)c1)N(c1ccc(C(C)(C)C)cc1)C2=O (stereo not shown) [CMLD011122]
pEC50 [1]: 5.20 | CC50 [2]: 10 µM

CC(C)Cc1n[nH]c2c1[C@@H](c1ccc(F)cc1)N([C@H]1CC[C@H](N(C)C)CC1)C2=O [CMLD011124]
pEC50 [1]: 4.60 | CC50 [2]: > 50 µM

COc1ccc(N2C(=O)c3[nH]nc(CC(C)C)c3C2c2ccccn2)cc1 (stereo not shown) [CMLD011125]
pEC50 [1]: 4.50 | CC50 [2]: > 50 µM

CC(C)Cc1n[nH]c2c1C(c1cccc(C(F)(F)F)c1)N(CCN1CCCC1)C2=O (stereo not shown) [CMLD011126]
pEC50 [1]: 4.70 | CC50 [2]: 39.8 µM

CC(C)Cc1n[nH]c2c1C(c1ccc(F)cc1)N(CC1CCN(C)C1)C2=O (stereo not shown) [CMLD011129]
pEC50 [1]: < 4.30 | CC50 [2]: > 50 µM

COc1ccccc1N1C(=O)c2[nH]nc(CC(C)C)c2C1c1ccccc1Cl (stereo not shown) [CMLD011130]
pEC50 [1]: 4.80 | CC50 [2]: 25.1 µM

CC(C)Cc1n[nH]c2c1C(c1cccc(Cl)c1)N(c1ccc(C(C)(C)C)cc1)C2=O (stereo not shown) [CMLD011131]
pEC50 [1]: 5.60 | CC50 [2]: 15.8 µM

CC(C)Cc1n[nH]c2c1C(c1cccc(Cl)c1)N(c1ccc3c(c1)OCO3)C2=O (stereo not shown) [CMLD011132]
pEC50 [1]: 5.30 | CC50 [2]: 20 µM

COc1cccc(N2C(=O)c3[nH]nc(CC(C)C)c3C2c2cccc(Cl)c2)c1 (stereo not shown) [CMLD011133]
pEC50 [1]: 5.30 | CC50 [2]: 25.1 µM

COc1ccccc1N1C(=O)c2[nH]nc(CC(C)C)c2C1c1cccc(Cl)c1 (stereo not shown) [CMLD011134]
pEC50 [1]: 5.10 | CC50 [2]: 15.8 µM

CC(C)Cc1n[nH]c2c1C(c1ccsc1)N(c1ccc(C(C)(C)C)cc1)C2=O (stereo not shown) [CMLD011135]
pEC50 [1]: 5.40 | CC50 [2]: > 50 µM

COc1ccc(N2C(=O)c3[nH]nc(CC(C)C)c3C2c2ccsc2)cn1 (stereo not shown) [CMLD011137]
pEC50 [1]: 5.00 | CC50 [2]: 25.1 µM

COc1ccccc1N1C(=O)c2[nH]nc(CC(C)C)c2C1c1ccsc1 (stereo not shown) [CMLD011138]
pEC50 [1]: 5.10 | CC50 [2]: 15.8 µM

COc1cccc(N2C(=O)c3[nH]nc(CC(C)C)c3C2c2cccc(C(F)(F)F)c2)c1 (stereo not shown) [CMLD011140]
pEC50 [1]: 5.30 | CC50 [2]: 20 µM

COc1ccccc1N1C(=O)c2[nH]nc(CC(C)C)c2C1c1cccc(C(F)(F)F)c1 (stereo not shown) [CMLD011141]
pEC50 [1]: 5.10 | CC50 [2]: 20 µM

COc1ccc(N2C(=O)c3[nH]nc(CC(C)C)c3C2c2ccncc2)cc1 (stereo not shown) [CMLD011142]
pEC50 [1]: < 4.30 | CC50 [2]: > 50 µM

CC(C)Cc1n[nH]c2c1C(c1ccc(F)cc1)N(c1ccc(S(N)(=O)=O)cc1)C2=O (stereo not shown) [CMLD011495]
pEC50 [1]: < 4.00 | CC50 [2]: 20 µM

COc1ccc(N2C(=O)c3[nH]nc(CC(C)C)c3C2c2ccncc2Cl)cc1 (stereo not shown) [CMLD011496]
pEC50 [1]: 5.00 | CC50 [2]: 20 µM

CC(C)Cc1n[nH]c2c1C(c1ccc(F)cc1)N(c1ccccc1N(C)C)C2=O (stereo not shown) [CMLD011499]
pEC50 [1]: 5.49 | CC50 [2]: 10 µM

CC(C)Cc1n[nH]c2c1C(c1c(Cl)cccc1Cl)N(c1ccc3c(c1)OCO3)C2=O (stereo not shown) [CMLD011547]
pEC50 [1]: 5.60 | CC50 [2]: 20 µM

CC(C)Cc1n[nH]c2c1C(c1c(Cl)cccc1Cl)N(c1ccc(Br)cc1)C2=O (stereo not shown) [CMLD011550]
pEC50 [1]: 5.10 | CC50 [2]: 20 µM

CC(C)Cc1n[nH]c2c1C(c1ccc(F)cc1)N(c1ccc3[nH]c(O)nc3c1)C2=O (stereo not shown) [CMLD011556]
pEC50 [1]: < 4.00 | CC50 [2]: 20 µM

CC(C)Cc1n[nH]c2c1C(c1ccc(F)cc1)N(c1ccc3[nH]cnc3c1)C2=O (stereo not shown) [CMLD011557]
pEC50 [1]: < 4.00 | CC50 [2]: 20 µM

CC(C)Cc1n[nH]c2c1C(c1ccc(F)cc1)N(c1ccc(S(=O)(=O)N3CCCC3)cc1)C2=O (stereo not shown) [CMLD011558]
pEC50 [1]: < 4.00 | CC50 [2]: 20 µM

COc1ccc(N2C(=O)c3[nH]nc(CC(C)C)c3C2c2cccnc2Cl)cc1 (stereo not shown) [CMLD011559]
pEC50 [1]: < 4.00 | CC50 [2]: 20 µM

COc1ccc(N2C(=O)c3[nH]nc(CC(C)C)c3C2c2c(Cl)cccc2Cl)cc1F (stereo not shown) [CMLD011568]
pEC50 [1]: 5.20 | CC50 [2]: 20 µM

COc1ccc(N2C(=O)c3[nH]nc(CC(C)C)c3C2c2c(Cl)cccc2Cl)cn1 (stereo not shown) [CMLD011569]
pEC50 [1]: 5.30 | CC50 [2]: 20 µM

COc1ccc(N2C(=O)c3[nH]nc(CC(C)C)c3C2c2ccc(F)cc2OC)cc1F (stereo not shown) [CMLD011573]
pEC50 [1]: 6.30 | CC50 [2]: 7.9 µM

COc1ccc(N2C(=O)c3[nH]nc(CC(C)C)c3C2c2ncccc2Cl)cc1 (stereo not shown) [CMLD011575]
pEC50 [1]: 5.00 | CC50 [2]: 20 µM

COc1ccc(N2C(=O)c3[nH]nc(CC(C)C)c3C2c2cccnc2OC)cc1 (stereo not shown) [CMLD0011576]
pEC50 [1]: 4.60 | CC50 [2]: 10 µM

COc1ccc(N2C(=O)c3[nH]nc(CC(C)C)c3C2c2cnccc2OC)cc1 (stereo not shown) [CMLD011577]
pEC50 [1]: 5.00 | CC50 [2]: 20 µM

COc1ccc(N2C(=O)c3[nH]nc(CC(C)C)c3C2c2ncccc2OC)cc1 (stereo not shown) [CMLD011578]
pEC50 [1]: < 4.00 | CC50 [2]: 20 µM

COc1ccc(N2C(=O)c3[nH]nc(CC(C)C)c3C2c2cnccc2Cl)cc1 (stereo not shown) [CMLD011579]
pEC50 [1]: < 4.00 | CC50 [2]: 20 µM

COc1ccc(N2C(=O)c3[nH]nc(CC(C)C)c3C2c2ccc(F)c(F)c2)cc1 (stereo not shown) [CMLD013640]
pEC50 [1]: 5.30 | CC50 [2]: 25.1 µM

From patent publication US20230381142A1, “ANTILEISHMANIAL COMPOUNDS, COMPOSITIONS AND USE THEREOF” (TRUSTEES OF BOSTON UNIVERSITY, priority 2022, published 2023)
